Test results reported in patent US20230013669A1, “Antibacterial Treatment Using a Cannabinoid and an Active Agent” (priority 2019, published 2023).
Read-outs that look alike come from different tables or passages of the source.

Tests used:
[1] = system: Pseudomonas aeruginosa ATCC 27853 (GN_042); test: MIC micro-broth dilution assay (Example 1 method); assay type: cell-based; details: for MIC: ATCC27853
[2] = system: Acinetobacter baumannii 03.021.1 (GN_039), Colistin resistant; test: Synergy of cannabidiol with cell-wall disrupting agent (CBD MIC in combination, FICI); assay type: cell-based; details: for MIC: Acinetobacter baumannii
Procedure: The compounds were stored short term at 4° C.
Analysis was performed using Microsoft Excel.

[3] = system: Enterobacter cloacae CI Patercon BoxNo: 79 (GN_016), MDR; test: as above; details: for MIC: Enterobacter cloacae
[4] = Example 9, GN_039, listed as CBD
[5] = Example 8, GN_016, listed as CBD

C=C(C)C1CCC(C)=CC1c1c(O)cc(CCCCC)cc1O (stereo not shown) [Cannabidiol, 2-[3-methyl-6-(1-methylethenyl)-2-cyclohexen-1-yl]-5-pentyl-1,3-benzenediol]
4 µg/mL: MIC ([2]; read-out: CBD MIC with MCC_00636 at concentration 0.25 μg/mL, Example 8, GN_039) | MIC ([2]; read-out: CBD MIC with MCC_00636 at concentration […], Example 8, GN_039)
2 µg/mL: CBD MIC with MCC_09222 at concentration 16 μg/mL [2, 4] | MIC ([3]; read-out: CBD MIC with MCC_00636 at concentration 0.25 μg/mL, Example 8, GN_016) | MIC ([3]; read-out: CBD MIC with MCC_09222 at concentration 8 μg/mL, Example 9, GN_016) | CBD MIC with MCC_09222 at concentration 16 μg/mL ([3]; Example 9, GN_016, listed as CBD)
256 µg/mL: MIC ([1]; CBD alone, Pseudomonas aeruginosa ATCC 27853, read-out: CBD MIC) | CBD MIC ([1]; CBD alone) | CBD MIC ([1]; Pseudomonas aeruginosa ATCC 27853, CBD alone)
>256 µg/mL: Minimal Inhibitory Concentration (MIC) ([1]; Example 1 Table 3, GN_042, compound alone, replicates) | Minimum Inhibitory Concentration (MIC) ([1]; Example 6 Table 23, GN_042, compound alone, replicates)
synergy: cannabidiol combined with Polymyxin B: synergy ([2]; Example 8) | cannabidiol combined with Polymyxin B: synergy ([3]; Example 8)
synergistic effect: cannabidiol in combination with MCC_09222: synergy ([2]; Example 9) | cannabidiol in combination with MCC_09222: synergy ([3]; Example 9)
0.5 µg/mL: MIC ([2]; read-out: CBD MIC with MCC_09222 at concentration 32 μg/mL, Example 9, GN_039) | MIC ([3]; read-out: CBD MIC with MCC_00636 at concentration 0.5 μg/mL, Example 8, GN_016) | MIC ([3]; read-out: CBD MIC with MCC_00636 at concentration 1 μg/mL, Example 8, GN_016) | MIC ([3]; read-out: CBD MIC with MCC_00636 at concentration 2 μg/mL, Example 8, GN_016) | MIC ([3]; read-out: CBD MIC with MCC_00636 at concentration 4 μg/mL, Example 8, GN_016)
0.000977 µg/mL: MIC ([2]; read-out: CBD MIC with MCC_00636 at concentration 0.5 μg/mL, Example 8, GN_039) | MIC ([2]; read-out: CBD MIC with MCC_00636 at concentration 1 μg/mL, Example 8, GN_039) | MIC ([2]; read-out: CBD MIC with MCC_09222 at concentration 64 μg/mL, Example 9, GN_039) | MIC ([2]; read-out: CBD MIC with MCC_09222 at concentration 128 μg/mL, Example 9, GN_039) | MIC ([3]; read-out: CBD MIC with MCC_00636 at concentration 8 μg/mL, Example 8, GN_016)
1 µg/mL: MIC ([2]; read-out: CBD MIC with MCC_09222 at concentration 16 μg/mL, Example 9, GN_039) | CBD MIC with MCC_09222 at concentration 32 μg/mL [2, 4] | MIC ([3]; read-out: CBD MIC with MCC_09222 at concentration 16 μg/mL, Example 9, GN_016) | MIC ([3]; read-out: CBD MIC with MCC_09222 at concentration 32 μg/mL, Example 9, GN_016) | MIC ([3]; read-out: CBD MIC with MCC_09222 at concentration 64 μg/mL, Example 9, GN_016) | MIC ([3]; read-out: CBD MIC with MCC_09222 at concentration 128 μg/mL, Example 9, GN_016) | CBD MIC with MCC_00636 at concentration 0.5 μg/mL [3, 5] | CBD MIC with MCC_00636 at concentration 1 μg/mL [3, 5] | CBD MIC with MCC_00636 at concentration 2 μg/mL [3, 5] | CBD MIC with MCC_00636 at concentration 4 μg/mL [3, 5]
> 256 µg/mL: MIC ([1]; Pseudomonas aeruginosa, Example 1 Table 3, GN_042, compound alone, replicates, read-out: Minimal Inhibitory Concentration (MIC)) | MIC ([1]; Pseudomonas aeruginosa, Example 6 Table 23, GN_042, compound alone, replicates, read-out: Minimum Inhibitory Concentration (MIC))
